# Measured values reported in paper PMC9298352, “Design, Synthesis and Structural Analysis of Glucocerebrosidase Imaging Agents” (Chemistry (Weinheim an Der Bergstrasse, Germany), 2021).
# Where a chain is given by its changes, count along the chain named. Like-named read-outs stand apart in the source and are kept apart here.
# What was measured:
# Type in all cases: biochemical
# [1] = target: T1, recombinant human GBA (rhGBA, Imiglucerase) (Homo sapiens, UniProt P04062, R534H); assay: In vitro apparent IC50, fluorogenic substrate assay on rhGBA
# T1 construct: purchased Sanofi Genzyme (Cambridge, MA, USA)
# T1 sequence (P04062 40-536 R534H): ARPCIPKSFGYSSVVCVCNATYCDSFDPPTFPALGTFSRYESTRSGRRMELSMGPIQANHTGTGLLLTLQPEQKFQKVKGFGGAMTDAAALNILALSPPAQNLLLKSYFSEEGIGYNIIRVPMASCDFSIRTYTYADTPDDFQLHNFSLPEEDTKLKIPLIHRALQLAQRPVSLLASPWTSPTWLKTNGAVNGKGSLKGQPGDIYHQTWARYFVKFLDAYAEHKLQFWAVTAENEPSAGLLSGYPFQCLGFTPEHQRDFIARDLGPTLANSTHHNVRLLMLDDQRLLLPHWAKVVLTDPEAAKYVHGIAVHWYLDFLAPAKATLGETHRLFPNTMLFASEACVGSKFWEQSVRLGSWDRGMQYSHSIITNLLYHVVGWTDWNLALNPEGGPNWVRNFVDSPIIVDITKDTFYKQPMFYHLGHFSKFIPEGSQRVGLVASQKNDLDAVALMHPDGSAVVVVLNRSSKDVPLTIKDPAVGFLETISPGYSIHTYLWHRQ
# Method: All assays were performed in duplicate sets, each with 3 technical replicates at each inhibitor concentration. DMSO concentration was kept at 0.5 %–1 % (v/v) in all assays during incubation with compounds. In vitro apparent IC50 values were calculated by fitting data with [inhibitor] vs. response‐various slope (four parameters) function using Graphpad Prism 7.0 software. Average values and standard deviations were calculated from the two sets.
# rhGBA = target: T2, rhGBA (Homo sapiens, UniProt P04062); assay: Titration of ABP 6 and ABP 9 with constant rhGBA (gel-based labelling); conditions: constant rhGBA 200 nM, ABP 150–0.001 nM, 37 °C, 30 mins
# T2 construct: made in house; host or cells: insect-baculovirus expression vector system (BEVS)
# T2 sequence (P04062 40-536): T1 sequence (P04062 40-536 R534H) with H495R
# Method: Maximum‐likelihood/σA weighted (2Fo–Fc) electron density map contoured to 1.0 σ (a=1.31 e^−/Å^3). […] Fluorescently labelled rhGBA visualized by Cy5 fluorescent readout. D=denatured protein sample.
# The reactions were incubated at 37 °C for 30 mins and denatured with Laemmli (x3) sample buffer at 95 °C for 5 minutes. The samples were resolved by electrophoresis in 10 % SDS‐PAGE gels, running at 200 V for ∼50 minutes. Wet slab gels were scanned on fluorescence using an Amersham Typhoon 5 Imager (GE Healthcare) with λEX 635 nm; λEM >665 nm.
# [2] = target: T3, GBA2 in mouse brain lysate (Mus musculus, UniProt Q69ZF3); assay: Fluorescent labeling of mouse brain lysate, GBA2; conditions: 30 min, 37 °C
# T3 construct: from tissue; host or cells: mouse brain
# T3 sequence (Q69ZF3 1-918): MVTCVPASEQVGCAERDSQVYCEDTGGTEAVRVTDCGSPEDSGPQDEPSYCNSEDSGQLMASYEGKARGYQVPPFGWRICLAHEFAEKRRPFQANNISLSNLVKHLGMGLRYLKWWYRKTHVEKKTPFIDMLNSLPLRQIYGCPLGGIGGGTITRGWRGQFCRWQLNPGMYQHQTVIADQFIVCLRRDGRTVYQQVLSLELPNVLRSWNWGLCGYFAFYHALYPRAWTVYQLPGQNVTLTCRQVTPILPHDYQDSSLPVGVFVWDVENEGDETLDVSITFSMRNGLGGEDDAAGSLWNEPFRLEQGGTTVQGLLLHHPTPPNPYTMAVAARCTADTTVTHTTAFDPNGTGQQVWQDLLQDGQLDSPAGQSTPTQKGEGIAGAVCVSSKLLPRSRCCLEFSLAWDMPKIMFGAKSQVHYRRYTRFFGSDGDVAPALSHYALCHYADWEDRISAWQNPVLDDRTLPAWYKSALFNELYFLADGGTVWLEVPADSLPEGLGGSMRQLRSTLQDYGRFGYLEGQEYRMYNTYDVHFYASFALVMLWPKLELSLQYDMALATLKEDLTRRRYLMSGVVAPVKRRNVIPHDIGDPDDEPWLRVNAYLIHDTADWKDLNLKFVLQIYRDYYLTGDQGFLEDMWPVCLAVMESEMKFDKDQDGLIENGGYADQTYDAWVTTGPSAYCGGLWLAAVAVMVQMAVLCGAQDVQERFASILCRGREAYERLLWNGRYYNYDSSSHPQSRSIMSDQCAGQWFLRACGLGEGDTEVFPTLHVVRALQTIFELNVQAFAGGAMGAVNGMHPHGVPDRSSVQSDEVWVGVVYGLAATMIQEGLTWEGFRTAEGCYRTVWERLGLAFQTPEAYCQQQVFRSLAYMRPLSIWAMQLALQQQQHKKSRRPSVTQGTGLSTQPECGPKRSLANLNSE
# Method: We next investigated their labeling efficiency and selectivity toward GBA in mouse brain lysate at pH 5.2 (containing 0.2 % taurocholate and 0.1 % Triton‐100) and pH 5.8 as respective optimal conditions for GBA and GBA2 activities (Figure 7). […] Importantly, no labelling of GBA2 was observed up to 1000 nM, showing good GBA selectivity.
# Labeling by broad‐spectrum β‐glucosidase ABP 8 is shown for comparison (100 nM, pH 5.2 or pH 5.8, 30 min, 37 °C).
# Fluorescent labeling with broad‐spectrum ABP 8 was performed at 100 nM ABP concentration at 37 °C for 30 min at pH 5.2 (with 0.1 % (v/v) Triton X‐100 and 0.2 % (w/v) sodium taurocholate) or pH 5.8 respectively. Samples were then denatured with 4 μL Laemmli (5x) sample buffer and heated at 98 °C for 5 minutes. Proteins were resolved by electrophoresis in 10 % SDS‐PAGE gels, running at a constant of 90 V for 30 minutes followed by 120 V for approximately 60 minutes. Wet slab gels were scanned on fluorescence using a Typhoon FLA9500 Imager (GE Healthcare) using λEX 635 nm; λEM >665 nm and images were processed using ImageLab 5.2.1 (BioRad).
smiles,measurement,setting,value
CCCCCCCCN1[C@@H]2[C@H](Cn3cc(CNC(=O)CCCCC[N+]4=C(/C=C/C=C/C=C5/N(C)c6ccccc6C5(C)C)C(C)(C)c5ccccc54)nn3)[C@@H](O)[C@H](O)[C@@H](O)[C@@H]21 (stereo partly shown) [ABP 6],IC50,"[1]; 3 hr pre-incubation, read-out: apparent IC50 value, GBA",53 nM
same,IC50,"[1]; apparent IC50, 3 h pre-incubation, 4-methylumbelliferyl-β-glucoside substrate, ± SD from technical duplicates, read-out: In vitro rhGBA IC50",53.1 ± 2.65 nM
same,gel-detection limit (ABP concentration),rhGBA,1 nM
same,ABP concentration up to which no labelling of GBA2 was observed,[2],> 1000 nM
